Test results taken from paper PMC5118688 (Scientific Reports, 2016).
Values after ≈ are worked out from the molar mass of the structure shown. Where two headings read alike, the source gives them in different places.

Legend:
mAb3C9 [1] = test: mimotope-based dcELISA (mAb3C9 and M20-GST-BAD/SA-HRP competitor); format: binding, mouse; conditions: for CR (%): M20-GST-BAD, (IC50 of parathion-methyl/IC50 of pesticide) × 100
Description: To develop a mimotope-based dcELISA, the biotinylated mimotope fusion protein was firstly assembled with streptavidin-HRP conjugate (SA-HRP) utilized the high affinity of biotin and streptavidin. The assembly process was just mixing a certain amount of biotinylated mimotope fusion protein with SA-HRP and incubating them at 4 °C overnight before use as an HRP-labeled competitor.
An innovative mimotope-based dcELISA was developed and performed as below. […] TMB solution (100 μL/well) was added and incubated for 15 min at 37 °C.
The optimal condition for mimotope-based dcELISA was optimized as chemosynthesized antigen-based dcELISA. The selectivity and sensitivity of the developed mimotope-based dcELISA for the 24 OPs were also determined under the optimum condition.

mAb3C9 [2] = test: optimized chemosynthesized antigen-based dcELISA (mAb3C9 and hapten 6-OVA); conditions: for CR (%): Hapten 6-OVA, (IC50 of parathion-methyl/IC50 of pesticide) × 100
Description: (§1) The dcELISA procedure was performed as below. First, the plate (Costar, Corning Inc., New York, USA) was coated with coating antigen (100 μL/well in 1 × PBS) for 1 h at 37 °C. Then, the wells were washed four times with PBST (1 × PBS with 0.05% (v/v) Tween-20) and blocked with 2% skim milk (200 μL/well) for 1 h at 37 °C. After washing four times, 50 μL analyte in MeOH-water solution and 50 μL mAb-HRP in PBS were added. The plate was incubated for 1 h at 37 °C and then washed four times before adding TMB solution (100 μL/well). After incubation for 15 min at 37 °C, 50 μL/well of H2SO4 (2 mol/L) was added to stop the reaction, and the absorbance was recorded at 450 nm using the Model 680 plate reader (Bio-Rad, USA).
(§2) 18 kinds of O,O-dimethyl OPs and 6 kinds of O,O-diethyl OPs were purchased from National Standards of China and used for the selectivity and sensitivity study using the optimized dcELISA procedure. […] The IC50 value and detection limit of each OP were calculated. The CR value, which was used to evaluate the selectivity of the method, was calculated using the following equation:

mAb4D11 = test: optimized mAb4D11-based dcELISA
Description: as §1, §2

[3] = ref Hua et al. 11; cited from earlier work
[4] = mAb3C9, coating antigen Hapten 6-OVA

Structure (SMILES) | CR (%) (mAb3C9 [1]) | LOD (IC10) (mAb3C9 [1]; mAb3C9, M20-GST-BAD) [µg/mL] | IC50 ± SD (mAb3C9 [1]; mAb3C9, competitor M20-GST-BAD) [µg/mL] | CR (%) (mAb3C9 [2]) | LOD (IC10) (mAb3C9 [2]; mAb3C9, Hapten 6-OVA) [µg/mL] | IC50 ± SD (mAb3C9 [2]; [4]) [µg/mL] | CR (%) (mAb4D11; mAb4D11-based dcELISA) | IC50 (mAb4D11; mAb4D11-based dcELISA) [µg/mL] | IC50 [3] [µg/mL] | LOD (mAb4D11; mAb4D11-based dcELISA) [ng/mL] | IC50 ± SD (mAb3C9 [1]) [µg/mL] | LOD (IC10) (mAb3C9 [1]) [µg/mL] | IC50 ± SD (mAb3C9 [2]) [µg/mL] | LOD (IC10) (mAb3C9 [2]) [µg/mL] | CR (%) (mAb4D11) | IC50 (mAb4D11) [µg/mL]
COP(=S)(OC)SCn1nnc2ccccc2c1=O [Azinphos-methyl] | 290.8 | 0.0004 | 0.0017 ± 0.0001 (≈ 0.00536 µM) | 306.6 | 0.0004 | 0.0015 ± 0.0001 (≈ 0.00473 µM) | < 0.3 | > 5 | > 100 | – | – | – | – | – | – | –
COP(=S)(OC)Oc1cc(Cl)c(Cl)cc1Cl [Fenchlorphos] | 10.1 | 0.0093 | 0.0501 ± 0.0021 (≈ 0.156 µM) | 10.5 | 0.0074 | 0.0443 ± 0.0022 (≈ 0.138 µM) | 26.4 | 0.055 (≈ 0.171 µM) | – | 13.3 | – | – | – | – | – | –
COP(=S)(OC)Oc1ccc([N+](=O)[O-])cc1Cl [Isochlorthion] | – | – | – | – | – | – | – | – | 0.5766 (≈ 1.94 µM) | – | – | – | – | – | – | –
CCOP(=S)(OCC)Oc1cc(C)nc(C(C)C)n1 [Diazinon] | 0.2 | 0.4123 | 2.0648 ± 0.0417 (≈ 6.78 µM) | 0.3 | 0.3917 | 1.8124 ± 0.0461 (≈ 5.95 µM) | 5.0 | 0.2883 (≈ 0.947 µM) | – | 73.2 | – | – | – | – | – | –
CCOP(=S)(OCC)Oc1cnc2ccccc2n1 [Quinalphos] | 0.2 | 0.5318 | 3.2266 ± 0.0592 (≈ 10.8 µM) | 0.2 | 0.5123 | 2.8243 ± 0.0952 (≈ 9.47 µM) | 7.9 | 0.1842 (≈ 0.617 µM) | – | 32.5 | – | – | – | – | – | –
CCN(CC)c1nc(C)cc(OP(=S)(OC)OC)n1 [Pirimiphos-methyl] | 6.0 | 0.0222 | 0.0837 ± 0.0038 (≈ 0.274 µM) | 6.0 | 0.0156 | 0.0774 ± 0.0033 (≈ 0.253 µM) | 23.4 | 0.0621 (≈ 0.203 µM) | – | 9.1 | – | – | – | – | – | –
COP(=S)(OC)Oc1cc(Cl)c(Br)cc1Cl [Bromophos-methyl] | 6.2 | 0.0194 | 0.0822 ± 0.0024 (≈ 0.225 µM) | 6.2 | 0.0195 | 0.0755 ± 0.0041 (≈ 0.206 µM) | 11.6 | 0.1246 (≈ 0.34 µM) | – | 31.4 | – | – | – | – | – | –
CNC(=O)CSP(=S)(OC)OC [Dimethoate] | 2.7 | – | – | 2.7 | – | – | – | – | – | – | 0.1893 ± 0.0081 (≈ 0.826 µM) | 0.0284 | 0.1703 ± 0.0073 (≈ 0.743 µM) | 0.0184 | < 0.3 | > 5
CNC(=O)/C=C(\C)OP(=O)(OC)OC [Monocrotophos] | 2.5 | 0.0616 | 0.2014 ± 0.0043 (≈ 0.902 µM) | 2.6 | 0.0432 | 0.1791 ± 0.0086 (≈ 0.803 µM) | 0.5 | 2.9145 (≈ 13.1 µM) | – | 594.3 | – | – | – | – | – | –
CCOP(=O)(OCC)Oc1ccc([N+](=O)[O-])cc1 [Paraoxon-ethyl] | – | – | – | – | – | – | – | – | 0.1622 (≈ 0.589 µM) | – | – | – | – | – | – | –
CCOP(=S)(Oc1ccc([N+](=O)[O-])cc1)c1ccccc1 (stereo not shown) [EPN] | – | – | – | – | – | – | – | – | 0.0183 (≈ 0.0566 µM) | – | – | – | – | – | – | –
COP(=O)(OC)O/C(=C\Cl)c1cc(Cl)c(Cl)cc1Cl [Tetrachlorvinphos] | 8.5 | 0.0112 | 0.0597 ± 0.0033 (≈ 0.163 µM) | 8.6 | 0.0089 | 0.0544 ± 0.0021 (≈ 0.149 µM) | 0.6 | 2.4313 (≈ 6.64 µM) | – | 536.3 | – | – | – | – | – | –
CCOP(=S)(OCC)SCn1nnc2ccccc2c1=O [Azinphos-ethyl] | 4.7 | 0.0264 | 0.1074 ± 0.0032 (≈ 0.311 µM) | 4.9 | 0.0216 | 0.0953 ± 0.0042 (≈ 0.276 µM) | < 0.3 | > 5 | – | – | – | – | – | – | – | –
